Non-standard residues stand in square brackets, D forms with d. Residues, ends and D or L forms follow the SMILES beside them. Nspe = C[C@H](NCC(=O)O)c1ccccc1; NhArg = N=C(N)NCCCCNCC(=O)O; Nlys = NCCCCNCC(=O)O Where only a bound is given, the exact number is not on record here.

Series [1] deals with OVCAR3 (ovarian cancer). The series can be described thus: MTS cell viability assay, OVCAR3. The class given is cell-based. The procedure:
(§1) MCF-7, MCF-7/TxT50 and OVCAR-3 (available in ATCC) were kindly provided by Professor Branimir Sikic's lab at Stanford University, and were cultured in McCoy's 5A media (GIBCO) with 10% FBS and antibiotics. Primary dermal fibroblasts were gifts from Lifeline Cell Technology and were cultured <6 passages according to the protocol Lifeline provides. All the cells were cultured in cell incubators (Thermo Scientific) at 37°C with 5% CO2.
(§2) This assay is a colorimetric method for determining the number of viable cells in proliferation. Aliquots of 100 µl media containing 1×10^4 cells were distributed into each well of a 96-well plate (BD Falcon). The following day, when cell density reaches about ∼40% confluency, the cell media were removed and replaced with serial dilutions of peptoid stocks in culturing media. For peptoid dilutions, peptoid stocks were initially diluted in media at 100 µM and then diluted by half in series using a multichannel pipette, and maintained in 100 µl media for each concentration with triple repeats. After peptoid solutions were transferred onto cells in 96-well plates, cells were incubated at 37°C for certain time periods. Then 20 µl of the CellTiter 96 Aqueous Non-Radioactive cell proliferation assay (Promega) reagent which contains a tetrazolium compound, [3-(4,5-dimethylthiazol-2-yl)-5-(3-carboxymethoxyphenyl)-2-(4-sulfophenyl)-2H-tetrazolium, inner salt; MTS(a)], was added to each well and cells were further incubated for 2 h to metabolize. The absorbance of formazan products were measured at 490 nm in a microplate reader (Molecular Devices). Percentage of cell viability = (A -A testblank)/(A control -A blank)×100, where A is the absorbance of the test well and A control the average absorbance of wells with cells not treated with peptoids. A testblank (media, MTS, and diluted peptoids) and A blank (media and MTS) were background absorbances measured in the absence of cells.
(§3) The activity and selectivity of these peptoids against cancer cells were evaluated in vitro. Their cytotoxicity was tested in three cancer cell lines, MCF-7 (human breast cancer), LNCaP (human prostate cancer), and OVCAR-3 (human ovarian cancer). To estimate the selectivity of these peptoids in vitro, hemolytic activities of some peptoids were cited from previously published work (Table 2 **column), and the MRC-5 cell line (human fibroblasts derived from fetal lung tissues) and primary dermal fibroblasts were also tested as normal cell controls. Briefly, cells were treated with peptoids diluted in culturing media for certain time periods, and then cell viability was measured via MTS assays.

For series [2], the system named is MRC-5 (fetal lung fibroblast). The series can be described thus: MTS cell viability assay, MRC-5. Type of series: cell-based. As for the experimental part:
as §1, §2, §3

Series [3] has as its system MCF-7 (breast cancer). Put plainly: MTS cell viability assay, MCF-7. Type of series: cell-based. The procedure: as §1, §2, §3
For series [4], the system named is Primary dermal fibroblast. The series can be described thus: MTS cell viability assay, primary dermal fibroblasts. Type of series: cell-based. The procedure:
as §1, §2, §3

Series [5] has as its system LNCaP (prostate cancer). The series can be described thus: MTS cell viability assay, LNCaP. Type of series: cell-based. The procedure: as §2, §3
A short description of series [6]: Analytical RP-HPLC elution as relative measure of molecular hydrophobicity. The following applies: percentage of acetonitrile at elution, analytic RP-HPLC, C18 column, linear water/acetonitrile (0.1% trifluoroacetic acid) gradient 5%-95% acetonitrile over 30 min. The class given is physicochemical. From the text: Peptoids were synthesized using an ABI 433A peptide synthesizer (Applied Biosystems, Inc.) on Rink amide MBHA resin (EMD Biosciences, Gibbstown, NJ) using the submonomer protocol, [24]. Briefly, the amine on the nascent chain is bromoacetylated or chloroacetylated followed by SN2 displacement of bromide or chloride by a primary amine to form the side chain. Resin-bound peptoids were then exposed to a mixture of trifluoroacetic acid (TFA): triisopropylsilane: water (95∶2.5∶2.5, volume ratio) for 10 minutes to cleave peptoids from the resin. Crude peptoids were purified by reversed-phase high performance liquid chromatography (RP-HPLC) (Waters Corporation) using a C18 column and a linear acetonitrile/water gradient. A final purity >95% as measured by analytical RP-HPLC (Waters Corporation) was achieved, and the identity of each peptoid was confirmed using electrospray ionization mass spectrometry (ESI/MS). Pexiganan was synthesized by standard Fmoc chemistry on an ABI 433A peptide synthesizer ([…]). Unless indicated otherwise, all reagents were purchased from Sigma Aldrich (St. Louis, MO). Among the submonomers used, Nspe was derived from (S)-N-(1-phenylethyl)amine; Npm from benzylamine ([…]); NHis from histamine (2-[4-imidazolyl]ethylamine); NLeu from isobutylamine; NLys from N-tert-butoxycarbonyl-1,4-butanediamine (CNH Technologies, MA). Guanidinylation of NLys was carried out according to the reported procedure. When NHis was used in the peptoid sequence, chloroacetic acid was used. 5(6)-Carboxyfluorescein was used to label the N-terminus of peptoid 1 [28].
Peptoids were utilized herein as a peptidomimetic scaffold to capture the cationic, amphipathic nature of anticancer peptides, as well as to improve molecular stability and to increase chemical diversity. The design of anticancer peptoids were derived from previous antimicrobial peptoids and were further optimized hererin to improve the activity and selectivity of peptoids against anionic membranes, [24], [25]. […] Several novel variants were designed based on peptoid 1 but with different charges, amphipathicity, length, and helicity to change their activity or selectivity. The sequences of these variants, the solvent composition at RP-HPLC elution as a relative measure of molecular hydrophobicity, molecular net charges and their charge-to-length ratio are summarized in Table 1. […] Pexiganan, a clinically-relevant peptide analog of magainin 2 which was developed for topical treatment for diabetic foot infection, and LL-37, the only known human cathelicidin which is a non-selective antimicrobial peptide, were also tested for comparison.

Series [7] deals with human red blood cells. The following applies: cited from earlier work. From the text: Table 2 Peptoid Cytotoxicity in cancer cell lines and control cells. | column: HC10 (µM) ** || The chain length is believed to influence not only the activity but also modes of action of cationic, amphipathic peptides, [34]. […] Thus we limited the chain length of peptoids to 13 residues at most, and studied 1 9mer which has the same charge-to-length ratio (CTLR) as peptoid ...

Where [8] appears, read: MTS assay, 72 h treatment, media with 10% FBS, max 100 µM tested, triple repeats.
[9] abbreviates: normal cell control, MTS assay, 72 h treatment, media with 10% FBS, max 100 µM tested.

Regarding `C[C@@H](c1ccccc1)N(CC(N)=O)C(=O)CN(C(=O)CN(CCCCNC(=N)N)C(=O)CN(C(=O)CN(C(=O)CN(CCCCNC(=N)N)C(=O)CN(C(=O)CN(C(=O)CN(CCCCNC(=N)N)C(=O)CN(C(=O)CN(C(=O)CNCCCCNC(=N)N)[C@@H](C)c1ccccc1)[C@@H](C)c1ccccc1)[C@@H](C)c1ccccc1)[C@@H](C)c1ccccc1)[C@@H](C)c1ccccc1)[C@@H](C)c1ccccc1)[C@@H](C)c1ccccc1` [Peptoid 1-Nbtg, H-(Nbtg-Nspe-Nspe)4-NH2] (H-[NhArg][Nspe][Nspe][NhArg][Nspe][Nspe][NhArg][Nspe][Nspe][NhArg][Nspe][Nspe]-NH2), in series [1] (72 h), the “LC50 OVCAR3 (ovarian cancer)” value worked out at 8 µM. Further, in series [2] (72 h), the “LC50 MRC-5 (fetal lung fibroblast)” value is on record as 10 µM. In series [3] (72 h), the “LC50 MCF-7 (breast cancer)” value stood at 5 µM. Also, in series [4] (72 h), the “LC50 Primary dermal fibroblast” value is recorded as 8 µM. Besides, the “LC50 LNCaP (prostate cancer)” value in series [5] (72 h) is listed as 8 µM.

As to `C[C@@H](c1ccccc1)N(CC(N)=O)C(=O)CN(C(=O)CN(CCCCN)C(=O)CN(C(=O)CN(C(=O)CN(CCCCN)C(=O)CN(C(=O)CN(C(=O)CNCCCCN)[C@@H](C)c1ccccc1)[C@@H](C)c1ccccc1)[C@@H](C)c1ccccc1)[C@@H](C)c1ccccc1)[C@@H](C)c1ccccc1` [1 9mer, H-(NLys-Nspe-Nspe)3-NH2] (H-[Nlys][Nspe][Nspe][Nlys][Nspe][Nspe][Nlys][Nspe][Nspe]-NH2), the “LC50 OVCAR3 (ovarian cancer)” value in series [1] (72 h) is 34 µM. Moreover, the “LC50 MRC-5 (fetal lung fibroblast)” value in series [2] (72 h) is 40 µM. The compound also gave an HPLC elution in series [6] of 60 % ACN. For the same compound, the “LC50 MCF-7 (breast cancer)” value in series [3] (72 h) is 30 µM. The “LC50 Primary dermal fibroblast” value in series [4] (72 h) came out at 32 µM. Moreover, the HC10 in series [7] is on record as 150 µM. The “LC50 LNCaP (prostate cancer)” value in series [5] (72 h) is recorded as 27 µM.

As to `CC(C)CN(CC(N)=O)C(=O)CN(CCCCN)C(=O)CN(CC(C)C)C(=O)CN(CC(C)C)C(=O)CN(CCCCN)C(=O)CN(CC(C)C)C(=O)CN(CC(C)C)C(=O)CN(CCCCN)C(=O)CN(CC(C)C)C(=O)CN(CC(C)C)C(=O)CNCCCCN` [1 11mer-NLeu, H-(NLys-NLeu-NLeu)3-NLys-NLeu-NH2], the “LC50 OVCAR3 (ovarian cancer)” value in series [1] (72 h) was greater than 100 µM. In series [2] (72 h), the “LC50 MRC-5 (fetal lung fibroblast)” value is reported as greater than 100 µM. Besides, in series [6], the HPLC elution turned out to be 51 % ACN. The “LC50 MCF-7 (breast cancer)” value in series [3] (72 h) is recorded as greater than 100 µM. In addition, the “LC50 Primary dermal fibroblast” value in series [4] (72 h) is on record as greater than 100 µM. For the same compound, the “LC50 LNCaP (prostate cancer)” value in series [5] (72 h) is reported as greater than 100 µM.

In the case of `CC[C@H](C)[C@H](NC(=O)CN)C(=O)NCC(=O)N[C@@H](CCCCN)C(=O)N[C@@H](Cc1ccccc1)C(=O)N[C@@H](CC(C)C)C(=O)N[C@@H](CCCCN)C(=O)N[C@@H](CCCCN)C(=O)N[C@@H](C)C(=O)N[C@@H](CCCCN)C(=O)N[C@@H](CCCCN)C(=O)N[C@@H](Cc1ccccc1)C(=O)NCC(=O)N[C@@H](CCCCN)C(=O)N[C@@H](C)C(=O)N[C@@H](Cc1ccccc1)C(=O)N[C@H](C(=O)N[C@@H](CCCCN)C(=O)N[C@H](C(=O)N[C@@H](CC(C)C)C(=O)N[C@@H](CCCCN)C(=O)N[C@@H](CCCCN)C(N)=O)[C@@H](C)CC)C(C)C` [Pexiganan, reference compound] (H-GIGKFLKKAKKFGKAFVKILKK-NH2), the “LC50 OVCAR3 (ovarian cancer)” value in series [1] (setting [8]) came to 13 µM. Besides, in series [2] (setting [9]), the “LC50 MRC-5 (fetal lung fibroblast)” value turned out to be 21 µM. The “LC50 MCF-7 (breast cancer)” value in series [3] (setting [8]) amounted to 8 µM. Also, the “LC50 Primary dermal fibroblast” value in series [4] (setting [9]) is given as 19 µM. Besides, the HC10 in series [7] is on record as 70 µM. Besides, the “LC50 LNCaP (prostate cancer)” value in series [5] (setting [8]) was determined as 6 µM.

Turning to “H-(NLys-Nspe-Nspe)5-NH2 [peptoid 1 15mer, reference compound]”, the hemolytic activity result in series [7] is recorded as “substantially higher hemolytic activity”.

On to `C[C@@H](c1ccccc1)N(CC(N)=O)C(=O)CN(Cc1ccccc1)C(=O)CN(CCCCN)C(=O)CN(Cc1ccccc1)C(=O)CN(Cc1ccccc1)C(=O)CN(CCCCN)C(=O)CN(Cc1ccccc1)C(=O)CN(Cc1ccccc1)C(=O)CN(CCCCN)C(=O)CN(Cc1ccccc1)C(=O)CN(C(=O)CNCCCCN)[C@@H](C)c1ccccc1` [1 achiral-Nspe2, 12, H-NLys-Nspe-Npm-(NLys-Npm-Npm)2-NLys-Npm-Nspe-NH2], for which the “LC50 OVCAR3 (ovarian cancer)” value in series [1] (72 h) was 16 µM. Moreover, the “LC50 MRC-5 (fetal lung fibroblast)” value in series [2] (72 h) is on record as 21 µM. For the same compound, in series [6], the HPLC elution is recorded as 62 % ACN. In series [3] (72 h), the “LC50 MCF-7 (breast cancer)” value came to 12 µM. The “LC50 Primary dermal fibroblast” value in series [4] (72 h) was determined as 32 µM. In addition, the “LC50 LNCaP (prostate cancer)” value in series [5] (72 h) was determined as 10 µM.

With `CC[C@H](C)[C@H](NC(=O)[C@H](CCCCN)NC(=O)[C@H](CCC(=O)O)NC(=O)[C@H](CCCCN)NC(=O)[C@H](CO)NC(=O)[C@H](CCCCN)NC(=O)[C@H](CCCNC(=N)N)NC(=O)[C@H](Cc1ccccc1)NC(=O)[C@H](Cc1ccccc1)NC(=O)[C@H](CC(=O)O)NC(=O)CNC(=O)[C@H](CC(C)C)NC(=O)[C@@H](N)CC(C)C)C(=O)NCC(=O)N[C@@H](CCCCN)C(=O)N[C@@H](CCC(=O)O)C(=O)N[C@@H](Cc1ccccc1)C(=O)N[C@@H](CCCCN)C(=O)N[C@@H](CCCNC(=N)N)C(=O)N[C@H](C(=O)N[C@H](C(=O)N[C@@H](CCC(N)=O)C(=O)N[C@@H](CCCNC(=N)N)C(=O)N[C@H](C(=O)N[C@@H](CCCCN)C(=O)N[C@@H](CC(=O)O)C(=O)N[C@@H](Cc1ccccc1)C(=O)N[C@@H](CC(C)C)C(=O)N[C@@H](CCCNC(=N)N)C(=O)N[C@@H](CC(N)=O)C(=O)N[C@@H](CC(C)C)C(=O)N[C@H](C(=O)N1CCC[C@H]1C(=O)N[C@@H](CCCNC(=N)N)C(=O)N[C@H](C(=O)N[C@@H](CCC(=O)O)C(=O)N[C@@H](CO)C(=O)O)[C@@H](C)O)C(C)C)[C@@H](C)CC)C(C)C)[C@@H](C)CC` [LL 37, LL-37, reference compound], the “LC50 OVCAR3 (ovarian cancer)” value in series [1] (72 h) turned out to be 24 µM. For the same compound, the “LC50 MRC-5 (fetal lung fibroblast)” value in series [2] (72 h) was 24 µM. In addition, the “LC50 MCF-7 (breast cancer)” value in series [3] (72 h) is given as 21 µM. Moreover, in series [4] (72 h), the “LC50 Primary dermal fibroblast” value stood at 26 µM. In addition, the “LC50 LNCaP (prostate cancer)” value in series [5] (72 h) was found to be 27 µM.
